ChEMBL document CHEMBL1909046, “DrugMatrix in vitro pharmacology data”

Columns and labels:
[1] = target: T1, Alpha-2C adrenergic receptor (Homo sapiens, UniProt P18825); test: DRUGMATRIX: Adrenergic Alpha-2C radioligand binding (ligand: [3H] MK-912); type: cell membranes, Sf9, Membrane; conditions: sf9
T1 sequence (P18825 whole entry): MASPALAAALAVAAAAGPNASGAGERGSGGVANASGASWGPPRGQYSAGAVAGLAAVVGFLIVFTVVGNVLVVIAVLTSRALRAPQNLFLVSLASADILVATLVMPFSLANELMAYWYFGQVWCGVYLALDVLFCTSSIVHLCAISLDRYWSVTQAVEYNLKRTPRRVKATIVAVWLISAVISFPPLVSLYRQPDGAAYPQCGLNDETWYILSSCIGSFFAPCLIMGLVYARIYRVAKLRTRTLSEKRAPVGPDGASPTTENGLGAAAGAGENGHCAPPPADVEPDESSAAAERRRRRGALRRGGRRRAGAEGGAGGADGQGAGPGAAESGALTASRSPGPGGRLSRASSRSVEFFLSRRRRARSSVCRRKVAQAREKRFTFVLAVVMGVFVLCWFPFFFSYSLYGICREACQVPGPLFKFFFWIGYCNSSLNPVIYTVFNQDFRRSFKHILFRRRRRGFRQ

[2] = DRUGMATRIX: Calcium Channel Type L, Benzothiazepine radioligand binding (ligand: [3H] Diltiazem); type: cell membranes, Rattus norvegicus, Wistar, Brain, Membrane; conditions: Not Active = under 50% inhibition at 10 µM
[3] = target: T2, Receptor-type tyrosine-protein phosphatase C (Homo sapiens, UniProt P08575); design: species or system Escherichia coli;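 further: inhibition of CD45 enzyme activity measured using DiFMUP as substrate; in other assays of this panel Not Active means under 50% inhibition at 10 µM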
T2 sequence (P08575 whole entry): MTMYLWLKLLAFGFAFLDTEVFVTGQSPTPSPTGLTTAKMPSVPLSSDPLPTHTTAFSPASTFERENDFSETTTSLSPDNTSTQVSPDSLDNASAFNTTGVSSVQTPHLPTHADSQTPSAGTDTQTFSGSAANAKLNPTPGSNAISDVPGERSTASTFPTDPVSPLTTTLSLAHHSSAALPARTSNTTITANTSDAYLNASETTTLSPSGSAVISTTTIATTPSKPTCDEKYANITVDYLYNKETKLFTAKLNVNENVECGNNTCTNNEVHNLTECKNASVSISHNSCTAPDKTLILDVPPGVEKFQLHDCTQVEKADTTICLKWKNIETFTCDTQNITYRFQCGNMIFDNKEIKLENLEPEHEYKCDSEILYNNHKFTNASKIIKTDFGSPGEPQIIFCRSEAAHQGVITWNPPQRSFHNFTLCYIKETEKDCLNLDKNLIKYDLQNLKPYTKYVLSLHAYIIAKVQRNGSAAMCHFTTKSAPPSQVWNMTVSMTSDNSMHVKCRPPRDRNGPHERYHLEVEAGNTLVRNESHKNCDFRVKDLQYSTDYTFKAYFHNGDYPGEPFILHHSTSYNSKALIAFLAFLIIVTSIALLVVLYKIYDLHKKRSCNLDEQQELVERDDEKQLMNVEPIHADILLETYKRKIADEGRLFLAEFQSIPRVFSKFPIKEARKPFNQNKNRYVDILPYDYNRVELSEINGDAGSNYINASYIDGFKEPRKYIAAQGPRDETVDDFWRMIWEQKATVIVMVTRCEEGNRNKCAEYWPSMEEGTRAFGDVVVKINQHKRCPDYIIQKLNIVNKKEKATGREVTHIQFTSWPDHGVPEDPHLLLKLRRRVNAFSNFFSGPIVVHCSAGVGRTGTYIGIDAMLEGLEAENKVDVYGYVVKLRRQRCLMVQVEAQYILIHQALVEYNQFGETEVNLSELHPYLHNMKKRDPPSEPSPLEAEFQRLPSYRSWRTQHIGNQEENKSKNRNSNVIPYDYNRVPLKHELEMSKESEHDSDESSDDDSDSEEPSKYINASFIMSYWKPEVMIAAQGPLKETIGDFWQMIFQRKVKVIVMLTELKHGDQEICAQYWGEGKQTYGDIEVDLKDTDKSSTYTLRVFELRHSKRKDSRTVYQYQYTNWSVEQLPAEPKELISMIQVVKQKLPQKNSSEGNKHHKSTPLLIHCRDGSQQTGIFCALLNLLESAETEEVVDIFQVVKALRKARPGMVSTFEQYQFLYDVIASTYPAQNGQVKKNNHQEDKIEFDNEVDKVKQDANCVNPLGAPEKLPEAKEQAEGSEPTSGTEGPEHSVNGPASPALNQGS

[4] = DRUGMATRIX: Phorbol Ester radioligand binding (ligand: [3H] PDBu); type: cell membranes, Mus musculus, ICR, Brain, Membrane; conditions: Not Active = under 50% inhibition at 10 µM
D(4) dopamine receptor = target: T3, D(4) dopamine receptor (Homo sapiens, UniProt P21917); test: DRUGMATRIX: Dopamine D4.2 radioligand binding (ligand: [3H] Spiperone); type: cell membranes, CHO-K1, Membrane; conditions: cho-k1; Not Active = under 50% inhibition at 10 µM
T3 sequence (P21917 whole entry): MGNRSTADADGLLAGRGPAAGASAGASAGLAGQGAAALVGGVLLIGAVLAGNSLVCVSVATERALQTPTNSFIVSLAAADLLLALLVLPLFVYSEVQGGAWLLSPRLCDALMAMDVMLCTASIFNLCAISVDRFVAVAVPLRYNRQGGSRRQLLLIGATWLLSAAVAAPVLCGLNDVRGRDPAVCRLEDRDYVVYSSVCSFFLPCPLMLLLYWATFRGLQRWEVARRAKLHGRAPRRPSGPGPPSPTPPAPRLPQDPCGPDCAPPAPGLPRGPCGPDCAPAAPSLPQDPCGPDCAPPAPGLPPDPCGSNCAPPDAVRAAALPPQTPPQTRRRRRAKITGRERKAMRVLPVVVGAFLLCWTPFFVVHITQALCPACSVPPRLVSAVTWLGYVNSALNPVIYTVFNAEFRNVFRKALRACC

C[C@]12CC[C@@H]3c4ccc(O)cc4CC[C@H]3[C@@H]1C[C@@H](O)[C@@H]2O [ESTRIOL]
Not Active: IC50 [1] | IC50 [2] | Ki [2] | IC50 [3] | IC50 [4] | Ki [4] | IC50 (D(4) dopamine receptor)

C#C[C@]1(O)CC[C@H]2[C@@H]3CCC4=CC(=O)CC[C@]4(C)[C@H]3CC[C@@]21C [ETHISTERONE]
Not Active: IC50 [1] | IC50 [2] | Ki [2] | IC50 [3] | IC50 [4] | Ki [4] | IC50 (D(4) dopamine receptor)

CC(O)(P(=O)(O)O)P(=O)(O)O [ETIDRONIC ACID]
Not Active: IC50 [1] | IC50 [2] | Ki [2] | IC50 [3] | IC50 [4] | Ki [4] | IC50 (D(4) dopamine receptor)

CC(C)(C(=O)O)c1ccc(C(O)CCCN2CCC(C(O)(c3ccccc3)c3ccccc3)CC2)cc1 (centres undefined) [FEXOFENADINE]
Not Active: IC50 [1] | IC50 [2] | Ki [2] | IC50 [3] | IC50 [4] | Ki [4] | IC50 (D(4) dopamine receptor)

CN1CCN(c2c(F)cc3c(=O)c(C(=O)O)cn(CCF)c3c2F)CC1 [FLEROXACIN]
Not Active: IC50 [1] | IC50 [2] | Ki [2] | IC50 [3] | IC50 [4] | Ki [4] | IC50 (D(4) dopamine receptor)

O=c1[nH]c(=O)n([C@H]2C[C@H](O)[C@@H](CO)O2)cc1F [FLOXURIDINE]
Not Active: IC50 [1] | IC50 [2] | Ki [2] | IC50 [3] | IC50 [4] | Ki [4] | IC50 (D(4) dopamine receptor)

COC(=O)Nc1nc2cc(C(=O)c3ccc(F)cc3)ccc2[nH]1 [FLUBENDAZOLE]
Not Active: IC50 [1] | IC50 [2] | Ki [2] | IC50 [3] | IC50 [4] | Ki [4] | IC50 (D(4) dopamine receptor)

CC(=O)OCC(=O)[C@@]1(O)CC[C@H]2[C@@H]3CCC4=CC(=O)CC[C@]4(C)[C@@]3(F)[C@@H](O)C[C@@]21C [FLUDROCORTISONE ACETATE]
Not Active: IC50 [1] | IC50 [2] | Ki [2] | IC50 [3] | IC50 [4] | Ki [4] | IC50 (D(4) dopamine receptor)

CCOC(=O)c1ncn2c1CN(C)C(=O)c1cc(F)ccc1-2 [FLUMAZENIL]
Not Active: IC50 [1] | IC50 [2] | Ki [2] | IC50 [3] | IC50 [4] | Ki [4] | IC50 (D(4) dopamine receptor)

CC(=O)OCC(=O)[C@@]12OC(C)(C)O[C@@H]1C[C@H]1[C@@H]3C[C@H](F)C4=CC(=O)C=C[C@]4(C)[C@@]3(F)[C@@H](O)C[C@@]12C [FLUOCINONIDE]
Not Active: IC50 [1] | IC50 [2] | Ki [2] | IC50 [3] | IC50 [4] | Ki [4] | IC50 (D(4) dopamine receptor)

O=C(O)P(=O)(O)O [FOSCARNET]
Not Active: IC50 [1] | IC50 [2] | Ki [2] | IC50 [3] | IC50 [4] | Ki [4] | IC50 (D(4) dopamine receptor)

Cc1ccc(C)c(OCCCC(C)(C)C(=O)O)c1 [GEMFIBROZIL]
Not Active: IC50 [1] | IC50 [2] | Ki [2] | IC50 [3] | IC50 [4] | Ki [4] | IC50 (D(4) dopamine receptor)
